According to patent US20210186943A1, “OTIC FORMULATIONS FOR DRUG-INDUCED OTOTOXICITY” (OTONOMY, INC., priority 2018, published 2021):
Like-named read-outs stand apart in the source and are kept apart here.

Experiments:
cochlear hair cells [1] = test system: cochlear hair cells
Method: (§1) P2-P4 Sprague Dawley rat pups were used for all experiments.
(§2) Day 0: Dissected whole cochleae were mounted onto Cell-Tak-coated mesh inserts and incubated overnight in growth medium.
(§3) Day 3-4: Cochlea were fixed in 4% PFA overnight then immunohistochemically processed with the following: anti-MyoVIIa (1:500), anti-Neurofilament (1:500), Phalloidin (1:250), and DAPI (1:1000).
(§4) Z-stacks of the entire cochlea were imaged at 20x and stitched together using Zeiss Zen Black software. […] Healthy HCs and SGN fibers were counted within each box using Zeiss Zen Blue software. Error bars represent ±s.e.m. unless otherwise indicated.

dissociated strial cells = test: Caspase-Glo 3/7 caspase activation in dissociated strial cultures (Example B7); assay type: cell-based, Sprague Dawley rat; conditions: 0.5% DMSO vs 0% DMSO
Method: Post cochlear dissection, Reissner's membrane and the lateral wall were gently separated from the basilar membrane with fine forceps. The stria vascularis was then pulled off the lateral wall and collected separately. Cells were then dissociated using a pipette post-trypsinization and seeded onto Poly-d-lysine-coated 96-well plates. Cells were grown for 48-72 hours to achieve 80-90% confluency before treatment. […] Following treatment, cells were exposed to the Caspase-Glo 3/7 (Promega) reagent for 30 minutes then […] was read on a plate reader.
The dissociated strial cells were mostly comprised of marginal cells by 24 hours in vitro.

cochlear hair cells [2] = test: Effect of solvents on cisplatin-induced hair cell toxicity in cochlear explants; assay type: cell-based, Sprague Dawley rat; conditions: for Affect Cisplatin Toxicity: cisplatin exposed explants; for effect on cisplatin-induced hair cell toxicity: summary of Table M
Method: as §1, §2, §3, §4

[3] = test system: spiral ganglion neurons (SGNs); test: Protection of spiral ganglion neurons from cisplatin-induced degeneration in cochlear explant model (Example B10); assay type: cell-based; conditions: 1.5 hour pretreatment followed by co-treatment with 10 μM cisplatin
Method: (§5) Protective effects of various otoprotectant molecules on cisplatin-induced degeneration of hair cells and spiral ganglion neurons were measured. FIGS. 19 and 20 show the quantified percent protection (normalized to naïve) graphs for outer hair cells (OHCs) and spiral ganglion neurons (SGNs).

outer hair cells (OHCs) = test: Protection of outer hair cells from cisplatin-induced degeneration in cochlear explant model (Example B10); assay type: cell-based; conditions: 1.5 hour pretreatment followed by co-treatment with 10 μM cisplatin
Method: as §5

strial cells = test: Caspase 3/7 activation in dissociated strial cultures with cisplatin and antioxidants (Example B8); assay type: cell-based, Sprague-Dawley rat; conditions: cisplatin alone
From the text: Neonatal (P2-P4) Sprague-Dawley rats were used for the experiments described here. Animals were euthanized following anesthesia using isoflurane. Rat cochleae were then dissected in cold HBSS medium enriched with glucose.
Following cochlear dissection, Reissner's membrane and the lateral wall were separated and the stria vascularis was then removed from the lateral wall. Strial cells were then dissociated, seeded onto Poly-d-lysine coated 96 well plates and grown to achieve 80-90% confluency before treatment. […] After incubation, cells were lysed using the Promega caspase 3/7 Glo kit and the intensity of caspase 3/7 were read using Perkin-Elmer Enspire plate reader.
At this stage, cells also began to show formation of vessels (Laminin staining).

[4] = test system: spiral ganglion neurons (SGNs); test: Cisplatin-induced spiral ganglion neuron damage in ex vivo cochlear explants; assay type: cell-based, Sprague Dawley rat; design: SGN fiber density (SGNs per 200 μm): dose or concentration left out as unconfirmed
From the text: (§6) Error bars represent ±s.e.m. unless otherwise indicated.

cochlear hair cells [5] = test: Cisplatin-induced hair cell damage in ex vivo cochlear explants; assay type: cell-based, Sprague Dawley rat; design: dose or concentration left out as unconfirmed; conditions: various cisplatin concentrations, 48 or 72 hours
From the text: as §6

guinea pigs = test: Acute cisplatin-induced hearing loss (CIHL) model, ABR threshold shift; assay type: in vivo, guinea pig; conditions: single IT SP-600125 (20 mg/ml) in P407 24 hours prior to cisplatin IP 12 mg/kg; 7 days post-treatment; 4, 8, 16 kHz; vs IT P407 vehicle
Method: SP-600125 (20 mg/ml) in P407: 205.4 g of DI water were weighed. 1.1342 g of sodium chloride (Fisher Scientific) and 1.53 g of tromethamine (Fisher Scientific) were added. Solid materials were dissolved and the pH of the solution was adjusted to 7.8 with approximately 1.9 mL of 5 N HCl. 126.2 g of buffer was weighed and chilled down and 24.5 g of Poloxamer 407 (Lutrol F127, BASF) were added (e.g., sprinkled) while mixing to dissolve. The approximately 16% poloxamer solution was sterile filtered with a 0.22 μm PVDF 33 mm syringe filter. 207 mg of milled SP600125 (LC laboratories) was added, followed by […] of sterile filtered 16% Poloxamer 407 solution. The solution was then transferred to 3 mL autoclaved vials.
Female albino guinea pigs […] (n=6 per group) of approximately 6-8 weeks of age served as subjects for the experiments. […]
Auditory Brainstem Response (ABR) assessment—During the procedure, additional anesthetic was administered if needed to maintain the depth of anesthesia sufficient to insure immobilization and relaxation. ABRs were recorded in an electrically and acoustically shielded chamber, one ear at a time. […] Acoustic calibration was performed with TDT software (SigCal) and thresholds were expressed as dB SPL in conditions identical to that of threshold recordings in animals. […]
ABR thresholds were determined 7 days post-treatment at 3 frequencies (4, 8, and 16 kHz).

## CN1CCCC1=O [N-Methyl-2-pyrrolidone]
Cochlear hair cells [1]
  HC Toxicity: Yes

## C[S+](C)[O-] [DMSO, dimethyl sulfoxide]
Cochlear hair cells [1]
  HC Toxicity: No
  toxicity on naive cochlear explants: no evident toxicity
Dissociated strial cells
  effect on cisplatin-induced caspase activation (relative light units): reduced cisplatin-induced caspase activation
Cochlear hair cells [2]; solvent concentration 0.1%
  Affect Cisplatin Toxicity: Yes-Protection
Cochlear hair cells [2]; solvent concentration 0.5%
  Affect Cisplatin Toxicity: Yes-Protection
Cochlear hair cells [2]; solvent concentration 1%
  Affect Cisplatin Toxicity: Yes-Protection
Cochlear hair cells [2]
  effect on cisplatin-induced hair cell toxicity: reduced cisplatin-induced hair cell toxicity

## PEG400
Cochlear hair cells [2]; solvent concentration 2%
  Affect Cisplatin Toxicity: Yes-Protection
Cochlear hair cells [2]
  effect on cisplatin-induced hair cell toxicity: reduced cisplatin-induced hair cell toxicity

## CCO [Ethanol]
Cochlear hair cells [1]
  HC Toxicity: No
  toxicity on naive cochlear explants: no evident toxicity
Cochlear hair cells [2]; solvent concentration 1%
  Affect Cisplatin Toxicity: No
Cochlear hair cells [2]; solvent concentration 2%
  Affect Cisplatin Toxicity: No
Cochlear hair cells [2]; solvent concentration 2.5%
  Affect Cisplatin Toxicity: No

## Nc1nc2nc[nH]c2c(=S)[nH]1 [6-thioguanine]
[3]
  percent protection (normalized to naïve) of spiral ganglion neurons: complete protection
Outer hair cells (OHCs)
  percent protection (normalized to naïve) of outer hair cells: almost complete protection

## O=C(OCc1ccccc1)c1ccccc1 [Benzyl benzoate]
Cochlear hair cells [1]
  HC Toxicity: No
  toxicity on naive cochlear explants: no evident toxicity
Cochlear hair cells [2]; solvent concentration 0.5%
  Affect Cisplatin Toxicity: No
Cochlear hair cells [2]; solvent concentration 1%
  Affect Cisplatin Toxicity: No

## CC#N [Acetonitrile]
Cochlear hair cells [1]; solvent concentration 3%, cochlear explants
  HC Toxicity: Slight
Cochlear hair cells [2]; solvent concentration 3%
  Affect Cisplatin Toxicity: No

## N.N.[Cl][Pt][Cl] [cisplatin]
Strial cells
  caspase 3/7 activation (RLU): increased caspase 3/7 activation
[4]; base, mid, apex regions
  difference from base to apex in SGN susceptibility to cisplatin: No significant difference
[4]; varying concentrations of cisplatin, 48 or 72 hours
  SGN fiber density (SGNs per 200 μm): decreases in a dose dependent manner
Cochlear hair cells [5]
  IHCs per 200 μm: decreased in a dose- and exposure time-dependent manner
  OHCs per 200 μm: decreased in a dose- and exposure time-dependent manner

## CC(C)=O [Acetone]
Cochlear hair cells [1]; solvent concentration 1%, cochlear explants
  HC Toxicity: No
Cochlear hair cells [1]; solvent concentration 2%, cochlear explants
  HC Toxicity: No
Cochlear hair cells [1]; summary of Table M, all tested concentrations
  toxicity on naive cochlear explants: no evident toxicity
Cochlear hair cells [2]; solvent concentration 1%
  Affect Cisplatin Toxicity: No
Cochlear hair cells [2]; solvent concentration 2%
  Affect Cisplatin Toxicity: No

## O=C1c2ccccc2-c2n[nH]c3cccc1c23 [SP-600125, anthra[1,9-cd]pyrazol-6(2H)-one]
Guinea pigs
  ABR threshold shift: dramatically reduced the ABR threshold shift
